Measurements reported in US20190225670A1, “COMPOUNDS AND METHODS FOR ACTIVATING TIE2 SIGNALING” (ASCLEPIX THERAPEUTICS, LLC, priority 2016, published 2019).

Key:
[1] = test system: phospho-Tie2 (Y992); experiment: Immunofluorescence of phospho-Tie2 in MEC monolayers; format: cell-based, human; details: 200 ng/ml Ang2 15 min and AXT107
Description: As such, subsequent experiments evaluate the effects of AXT107 at cell-cell junctions in MEC monolayers using immunofluorescence microscopy rather than at the EC-ECM interface.
Glass-bottomed, 96-well plates with half well size were coated with 10 μg/ml FN1 for two hours at 37° C. The FN1 solution was then removed by aspiration and the plate seeded with 4×10^3 MECs in EGM-2MV media. After twenty-four hours, the cells were washed once with dPBS containing Ca^2+ and Mg^2+ to remove dead cells and the cells were allowed to grow for an additional twenty-four hours. For three-hour duration treatments (i.e., VE-cadherin), cells were washed twice with dPBS containing Ca^2+ and Mg^2+ and serum starved in EBM-2 for ninety minutes. The media was then removed and the cells were treated for three hours with 100 μl of EBM-2 media containing 200 ng/ml Ang2 or PBS and varying concentrations of AXT107 or DMSO. For fifteen minute-treated samples (i.e., phospho-Tie2), the cells were serum starved in EBM-2 media for 165 minutes, incubated for ninety minutes with varying concentrations of AXT107 or DMSO in EBM-2, and finally stimulated for fifteen minutes with 200 ng/ml Ang2 or PBS supplemented with peptide to retain the same concentrations. These times were chosen so that both treatment procedures would be completed at the same time. […]

[2] = test system: Tie2; experiment: Triton X-100 fractionation of MEC lysates, Tie2; format: cell-based, human
Description: Tie2 at EC-EC junctions form actin-rich complexes that are insoluble in Triton X-100-based lysis buffers but are soluble when distributed over the surface of the cell. Therefore, MEC monolayers were treated with various combinations of AXT107, Ang1, and Ang2 and cell lysates were fractionated by their solubility in Triton X-100-based lysis buffers. Experiments including VEGF 165 were also performed since VEGFR2 signaling often opposes the activities of Tie2. In each experiment, 100 μM AXT107 was used since it provided clear results relative to lower concentrations of AXT107.
Next, experiments were performed to determine whether or not relocation of Tie2 to the insoluble fraction was important for Tie2's activation by Ang2. Tie2 was immunoprecipitated from fractionated MEC lysates exposed to Ang2 with or without AXT107 and then immunoblotted for phospho-Tie2.
The isolation of Triton X-100 soluble and insoluble fractions was performed using modifications to previously-described procedures (see, e.g., Lampugnani et al., J Cell Biol. 1995; 129(1):203-217). FN1-coated six-well plates were seeded with 2.5×10^6 cells and cultured for forty-eight hours, as described above. The cultures were then serum starved for ninety minutes in EBM-2 media, treated with 100 μM AXT107 or DMSO vehicle, and fifteen minutes with 1 mM sodium vanadate. […] Samples were analyzed by western blot as described above. […]

[3] = molecular target: integrin α5β1 (Homo sapiens, UniProt P05556+P08648); details: Lee et al., Sci Rep. 2014; cited from earlier work
integrin α5β1, sequence (P08648 42-1049): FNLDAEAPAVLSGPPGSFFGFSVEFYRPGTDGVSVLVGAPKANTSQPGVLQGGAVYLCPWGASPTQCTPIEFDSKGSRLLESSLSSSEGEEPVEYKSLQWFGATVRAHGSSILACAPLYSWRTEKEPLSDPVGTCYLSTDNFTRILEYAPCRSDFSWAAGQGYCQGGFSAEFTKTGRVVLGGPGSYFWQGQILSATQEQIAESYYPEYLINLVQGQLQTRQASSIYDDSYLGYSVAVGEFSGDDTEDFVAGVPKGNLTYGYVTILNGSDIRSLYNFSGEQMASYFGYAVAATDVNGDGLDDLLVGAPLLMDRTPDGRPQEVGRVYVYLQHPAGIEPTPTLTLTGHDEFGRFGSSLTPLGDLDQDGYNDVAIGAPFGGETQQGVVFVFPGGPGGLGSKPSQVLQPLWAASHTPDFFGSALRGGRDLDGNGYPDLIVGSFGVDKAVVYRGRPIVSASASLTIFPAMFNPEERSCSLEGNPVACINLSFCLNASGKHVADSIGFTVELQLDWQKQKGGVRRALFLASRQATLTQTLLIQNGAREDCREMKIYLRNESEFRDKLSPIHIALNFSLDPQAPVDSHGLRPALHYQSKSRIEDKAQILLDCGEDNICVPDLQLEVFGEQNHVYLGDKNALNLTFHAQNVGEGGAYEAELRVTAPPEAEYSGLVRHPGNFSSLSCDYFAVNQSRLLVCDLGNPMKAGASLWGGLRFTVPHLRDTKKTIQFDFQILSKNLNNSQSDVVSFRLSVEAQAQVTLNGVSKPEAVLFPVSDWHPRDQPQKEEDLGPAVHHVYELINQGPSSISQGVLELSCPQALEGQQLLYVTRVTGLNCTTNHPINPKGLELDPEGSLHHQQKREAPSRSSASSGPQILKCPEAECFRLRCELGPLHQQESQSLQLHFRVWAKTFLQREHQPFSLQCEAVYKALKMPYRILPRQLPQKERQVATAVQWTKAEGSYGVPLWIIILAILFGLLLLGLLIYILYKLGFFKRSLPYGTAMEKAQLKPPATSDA
integrin α5β1, sequence (P05556 21-798): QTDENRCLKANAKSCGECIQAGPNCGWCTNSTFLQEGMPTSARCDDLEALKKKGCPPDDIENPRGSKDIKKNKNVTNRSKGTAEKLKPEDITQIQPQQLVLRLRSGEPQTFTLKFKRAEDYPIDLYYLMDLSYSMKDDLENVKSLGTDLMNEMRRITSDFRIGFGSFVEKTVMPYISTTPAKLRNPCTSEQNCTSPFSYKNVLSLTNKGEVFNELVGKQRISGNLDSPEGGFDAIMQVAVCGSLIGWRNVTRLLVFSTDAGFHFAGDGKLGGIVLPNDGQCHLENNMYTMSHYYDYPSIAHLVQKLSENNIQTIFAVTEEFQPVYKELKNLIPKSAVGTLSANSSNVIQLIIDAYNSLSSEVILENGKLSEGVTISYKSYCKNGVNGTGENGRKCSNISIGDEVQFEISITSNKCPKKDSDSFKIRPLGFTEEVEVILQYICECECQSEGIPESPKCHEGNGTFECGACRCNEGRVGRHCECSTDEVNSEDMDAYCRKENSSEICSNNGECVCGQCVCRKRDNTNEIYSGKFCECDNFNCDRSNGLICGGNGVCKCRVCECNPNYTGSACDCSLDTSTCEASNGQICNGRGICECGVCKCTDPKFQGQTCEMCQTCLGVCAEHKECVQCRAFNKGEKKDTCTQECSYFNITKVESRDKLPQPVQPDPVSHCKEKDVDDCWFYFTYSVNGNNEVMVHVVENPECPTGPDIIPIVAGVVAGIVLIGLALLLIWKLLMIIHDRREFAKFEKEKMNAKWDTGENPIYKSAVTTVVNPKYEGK

[4] = Self-assembly of peptide in media; format: physicochemical; details: cell culture media

Question: With LRRFSTAPFAFIDINDVINF [AXT107] as the sequence, how does the “phospho-Tie2 fluorescence intensity and distribution” value [1] read?
Answer: The value was “increased overall fluorescence intensity and redistributed phospho-Tie2 along cell-cell junctions and into large clusters”.

Question: What about the “amount of Tie2 in Triton X-100 insoluble fraction” value ([2]; 100 μM AXT107, independent of growth factor treatment) of the same sequence?
Answer: The value was “increased amounts”.

Question: And the “phospho-Tie2 in fractionated lysates immunoprecipitated for Tie2” value ([2]; MEC exposed to Ang2 with or without AXT107)?
Answer: The value was “observed only in the insoluble fractions of peptide-treated samples”.

Question: What about the “binding to integrin α5β1” value [3] of the same sequence?
Answer: The value was “binds tightly”.

Question: And the “self-assembly when added to media” value [4]?
Answer: The value was “self-assemble into peptide complexes”.
